Laboratory results reported in patent publication US11666558B2, “Methods of treating intraocular pressure with activators of Tie-2” (EyePoint Pharmaceuticals, Inc., priority 2015, dated 2023).
Like-named read-outs stand apart in the source and are kept apart here.

Test: Ocular tissue concentrations (aqueous humor, vitreous humor, iris, retina, choroid, cornea) after topical ocular, subcutaneous and intravitreal administration
Format: in vivo, New Zealand White rabbits
Settings: New Zealand White, rabbit; for concentration at 6 h / concentration at 24 h / concentration at 48 h / concentration at 72 h: other: intravitreal, 2.5 mg/eye
Experimental: To measure the concentration of Compound 1 in plasma and ocular tissues following topical ocular, subcutaneous, and intravitreal administration, New Zealand White rabbits were administered Compound 1, and plasma and ocular samples were collected at pre-determined time points. Compound 1 formulations were prepared fresh on each day of dosing.
Ocular tissue samples from both eyes of each animal were collected and weights were recorded. Plasma and ocular tissue sample concentrations of Compound 1 were determined by LC-MS/MS.
New Zealand White rabbits weighing 2.5 to 3.5 kg were used on this study. Rabbits were housed one per cage. Animals were not fasted and only healthy animals with no ocular illness were used. Two rabbits per group were sacrificed at each of four ocular tissue sampling time points for a total of eight rabbits per group.
Animals were anesthetized for ocular (topical) and intravitreal dosing following the 12IA7 IACUC protocol. Each rabbit received a bolus dose of test formulation either via topical ocular administration 3 times daily on Days 1 and 2 (at 0, 6, and 12 hours), and once on Day 3 (at 0 hours) into both eyes; via intravitreal administration into both eyes once on Day 1 (at 0 hours); or via subcutaneous administration 2 times daily on Days 1 and 2 (at 0 and 8 hours) and once daily on Day 3 (at 0 hours). Doses were given within an approximately 1 hour window each day where applicable.
On Day 1, for intravitreal administration, or on Day 3, for topical ocular and subcutaneous administration, at the appropriate ocular tissue collection time points, animals were euthanized and both eyes were enucleated immediately. Following enucleation, each eye was rinsed with phosphate-buffered saline. Ocular tissue samples from both eyes of each animal were collected at predetermined time points and weights were recorded. All the samples were frozen immediately on dry ice, and stored at −60° C. to −80° C. pending bioanalysis.
An LC-MS/MS method was developed for the determination of Compound 1 in rabbit aqueous tissues (plasma, aqueous and vitreous humor) and solid ocular tissue samples. A pre-study standard curve was analyzed to determine the specificity, range, and lower limit of quantitation of the method. Plasma and tissue homogenate study samples were extracted and analyzed. All the samples were treated identically to the standards.
One eight-point standard curve was used in each analytical batch. To be accepted, each batch must have had at least five of eight standards with accuracy within ±20% of nominal, except at the lower limit of quantification (LLOQ), where ±25% was acceptable.
Concentration versus time data is plotted in FIGS. 3-16. All data are expressed as ng/g of the free drug. Samples that were below the limit of quantitation (0.2 ng/mL) were not used in the calculation of averages.

[1] = iris homogenate, Iris homogenate, OD, sodium salt, intravitreal 2.5 mg/eye, Group 4, read-out: Iris Conc. (ng/mL) OD
[2] = iris homogenate, Iris homogenate, OS, sodium salt, intravitreal 2.5 mg/eye, Group 4, read-out: Iris Conc. (ng/mL) OS
[3] = iris homogenate, Iris homogenate, left eye, intravitreal 2.5 mg/eye (group 5), individual animals, read-out: Conc. (ng/mL) OS
[4] = iris homogenate, Iris homogenate, right eye, intravitreal 2.5 mg/eye (group 5), individual animals, read-out: Conc. (ng/mL) OD
[5] = iris homogenate, subcutaneous, 5 mg/kg/dose, Iris homogenate, OD, sodium salt, subcutaneous 5 mg/kg/dose, Group 2, read-out: Iris Conc. (ng/mL) OD
[6] = iris homogenate, subcutaneous, 5 mg/kg/dose, Iris homogenate, OS, free acid, subcutaneous 5 mg/kg/dose, Group 3, read-out: Iris Conc. (ng/mL) OS
[7] = iris homogenate, subcutaneous, 5 mg/kg/dose, Iris homogenate, OS, sodium salt, subcutaneous 5 mg/kg/dose, Group 2, read-out: Iris Conc. (ng/mL) OS
[8] = iris homogenate, subcutaneous, 5 mg/kg/dose, TABLE 16: Iris homogenate, OS, free acid, subcutaneous 5 mg/kg/dose, Group 3, read-out: Iris Conc. (ng/mL) OS
[9] = iris, Iris, OD, sodium salt, intravitreal 2.5 mg/eye, Group 4, read-out: Iris Conc. (ng/g) OD
[10] = iris, Iris, OS, sodium salt, intravitreal 2.5 mg/eye, Group 4, read-out: Iris Conc. (ng/g) OS
[11] = iris, Iris, average, intravitreal 2.5 mg/eye (group 5), read-out: Avg.
[12] = iris, Iris, left eye, intravitreal 2.5 mg/eye (group 5), individual animals, read-out: Conc. (ng/g) OS
[13] = iris, Iris, right eye, intravitreal 2.5 mg/eye (group 5), individual animals, read-out: Conc. (ng/g) OD
[14] = iris, Iris, sodium salt, intravitreal 2.5 mg/eye, Group 4, read-out: Iris Avg.
[15] = iris, subcutaneous, 5 mg/kg/dose, Iris, OD, sodium salt, subcutaneous 5 mg/kg/dose, Group 2, read-out: Iris Conc. (ng/g) OD
[16] = iris, subcutaneous, 5 mg/kg/dose, Iris, OS, free acid, subcutaneous 5 mg/kg/dose, Group 3, read-out: Iris Conc. (ng/g) OS
[17] = iris, subcutaneous, 5 mg/kg/dose, Iris, free acid, subcutaneous 5 mg/kg/dose, Group 3, read-out: Iris Average
[18] = iris, subcutaneous, 5 mg/kg/dose, Iris, sodium salt, subcutaneous 5 mg/kg/dose, Group 2, read-out: Iris Average
[19] = iris, subcutaneous, 5 mg/kg/dose, Iris, OS, sodium salt, subcutaneous 5 mg/kg/dose, Group 2, read-out: Iris Conc. (ng/g) OS
[20] = iris, subcutaneous, 5 mg/kg/dose, TABLE 16: Iris, OS, free acid, subcutaneous 5 mg/kg/dose, Group 3, read-out: Iris Conc. (ng/g) OS
[21] = iris, subcutaneous, 5 mg/kg/dose, TABLE 16: Iris, free acid, subcutaneous 5 mg/kg/dose, Group 3, read-out: Iris Average

With `COC(=O)N[C@@H](Cc1ccccc1)C(=O)N[C@@H](Cc1ccc(NS(=O)(=O)O)cc1)c1csc(-c2cccs2)n1` [Compound 1] the concentration at 4 h (cornea, subcutaneous, 5 mg/kg/dose, TABLE 16: Cornea, OD, free acid, subcutaneous 5 mg/kg/dose, Group 3, read-out: Cornea Conc. (ng/g) OD) was 10.4 ng/g, the concentration at 4 h (cornea, subcutaneous, 5 mg/kg/dose, TABLE 16: Cornea, free acid, subcutaneous 5 mg/kg/dose, Group 3, read-out: Cornea Average) was 15.8 ng/g and the concentration at 6 h [1] was 35500 ng/mL. The concentration at 6 h [2] was 34000 ng/mL, the concentration at 6 h [3] was 13800 ng/mL and the concentration at 6 h [4] was 18500 ng/mL. For the same compound, the concentration at 24 h [1] was 6890 ng/mL, the concentration at 24 h [3] was 14100 ng/mL and the concentration at 24 h [4] was 7670 ng/mL. It also gave a concentration at 48 h [1] of 2380 ng/mL, a concentration at 48 h [2] of 1960 ng/mL and a concentration at 48 h [3] of 1950 ng/mL. The concentration at 48 h [4] was 1010 ng/mL, the concentration at 72 h [1] was 169 ng/mL and the concentration at 72 h [3] was 1800 ng/mL. For the same compound, the concentration at 72 h [4] was 279 ng/mL, the concentration at 0.5 h [5] was 27.7 ng/mL and the concentration at 0.5 h [6] was 4.27 ng/mL. It also gave a concentration at 1 h [5] of 11.4 ng/mL, a concentration at 1 h [6] of 4.33 ng/mL and a concentration at 1 h [7] of 8.87 ng/mL. The concentration at 2 h (iris homogenate, subcutaneous, 5 mg/kg/dose, Iris homogenate, 2 hr, OD, free acid, subcutaneous 5 mg/kg/dose, Group 3, read-out: Iris Conc. (ng/mL) OD) was 2.77 ng/mL, the concentration at 2 h (iris homogenate, subcutaneous, 5 mg/kg/dose, Iris homogenate, 2 hr, OS, free acid, subcutaneous 5 mg/kg/dose, Group 3, read-out: Iris Conc. (ng/mL) OS) was 2.68 ng/mL and the concentration at 4 h (iris homogenate, subcutaneous, 5 mg/kg/dose, Iris homogenate, OD, free acid, subcutaneous 5 mg/kg/dose, Group 3, read-out: Iris Conc. (ng/mL) OD) was 2.41 ng/mL. It also gave a concentration at 4 hr [5] of 2.12 ng/mL, a concentration at 4 h [6] of 1.54 ng/mL and a concentration at 4 hr [7] of 3.1 ng/mL. For the same compound, the concentration at 0.5 h [8] was 4.27 ng/mL, the concentration at 1 h [8] was 4.33 ng/mL and the concentration at 2 h (iris homogenate, subcutaneous, 5 mg/kg/dose, TABLE 16: Iris homogenate, 2 hr, OD, free acid, subcutaneous 5 mg/kg/dose, Group 3, read-out: Iris Conc. (ng/mL) OD) was 2.77 ng/mL. It also gave a concentration at 2 h (iris homogenate, subcutaneous, 5 mg/kg/dose, TABLE 16: Iris homogenate, 2 hr, OS, free acid, subcutaneous 5 mg/kg/dose, Group 3, read-out: Iris Conc. (ng/mL) OS) of 2.68 ng/mL, a concentration at 4 h (iris homogenate, subcutaneous, 5 mg/kg/dose, TABLE 16: Iris homogenate, OD, free acid, subcutaneous 5 mg/kg/dose, Group 3, read-out: Iris Conc. (ng/mL) OD) of 2.41 ng/mL and a concentration at 4 h [8] of 1.54 ng/mL. For the same compound, the concentration at 6 h [9] was 390000 ng/g, the concentration at 6 h [10] was 374000 ng/g and the concentration at 6 h [11] was 211000 ng/g. The concentration at 6 h [12] was 152000 ng/g, the concentration at 6 h [13] was 204000 ng/g and the concentration at 6 h [14] was 352000 ng/g. For the same compound, the concentration at 24 h [9] was 75800 ng/g, the concentration at 24 h [11] was 113000 ng/g and the concentration at 24 h [12] was 155000 ng/g. For the same compound, the concentration at 24 h [13] was 84400 ng/g, the concentration at 24 h [14] was 141000 ng/g and the concentration at 48 h [9] was 26200 ng/g. It also gave a concentration at 48 h [10] of 21600 ng/g, a concentration at 48 h [11] of 16800 ng/g and a concentration at 48 h [12] of 21400 ng/g. For the same compound, the concentration at 48 h [13] was 11100 ng/g, the concentration at 48 h [14] was 24600 ng/g and the concentration at 72 h [9] was 1860 ng/g. For the same compound, the concentration at 72 h [11] was 10300 ng/g, the concentration at 72 h [12] was 19800 ng/g and the concentration at 72 h [13] was 3070 ng/g. For the same compound, the concentration at 72 h [14] was 1550 ng/g, the concentration at 0.5 h [15] was 305 ng/g and the concentration at 0.5 h [16] was 47 ng/g. The concentration at 0.5 h [17] was 50.3 ng/g, the concentration at 0.5 h [18] was 459 ng/g and the concentration at 1 h [15] was 125 ng/g. For the same compound, the concentration at 1 h [16] was 47.6 ng/g, the concentration at 1 h [19] was 97.6 ng/g and the concentration at 1 h [17] was 58 ng/g. It also gave a concentration at 1 h [18] of 94.7 ng/g, a concentration at 2 h (iris, subcutaneous, 5 mg/kg/dose, Iris, 2 hr, OD, free acid, subcutaneous 5 mg/kg/dose, Group 3, read-out: Iris Conc. (ng/g) OD) of 30.5 ng/g and a concentration at 2 h (iris, subcutaneous, 5 mg/kg/dose, Iris, 2 hr, OS, free acid, subcutaneous 5 mg/kg/dose, Group 3, read-out: Iris Conc. (ng/g) OS) of 29.5 ng/g. It also gave a concentration at 2 h (iris, subcutaneous, 5 mg/kg/dose, Iris, 2 hr, free acid, subcutaneous 5 mg/kg/dose, Group 3, read-out: Iris Average) of 27.6 ng/g, a concentration at 2 hr (iris, subcutaneous, 5 mg/kg/dose, Iris, 2 hr, sodium salt, subcutaneous 5 mg/kg/dose, Group 2, read-out: Iris Average) of 29.7 ng/g and a concentration at 4 h (iris, subcutaneous, 5 mg/kg/dose, Iris, OD, free acid, subcutaneous 5 mg/kg/dose, Group 3, read-out: Iris Conc. (ng/g) OD) of 26.5 ng/g. The concentration at 4 hr [15] was 33.8 ng/g, the concentration at 4 h [16] was 16.9 ng/g and the concentration at 4 hr [19] was 34.1 ng/g. The concentration at 4 h [17] was 17.5 ng/g, the concentration at 4 hr [18] was 30.4 ng/g and the concentration at 0.5 h [20] was 47 ng/g. The concentration at 0.5 h [21] was 50.3 ng/g, the concentration at 1 h [20] was 47.6 ng/g and the concentration at 1 h [21] was 58 ng/g.
